Key:
human AT-1 receptors = biological target: T1, human AT-1 receptors (Homo sapiens, UniProt P30556); assay: Radioligand binding assay, 125I-angiotensin II displacement; details: human AT-1 receptors expressed in mouse cell line L h AT-1-D6; 80 pM 125I-angiotensin II; 1 hour at 25° C.; read-out: IC50 (concentration of antagonist needed to displace 50% of the total specifically bound angiotensin II)
T1 construct: expressed in transfected cells
T1 sequence (P30556 1-359): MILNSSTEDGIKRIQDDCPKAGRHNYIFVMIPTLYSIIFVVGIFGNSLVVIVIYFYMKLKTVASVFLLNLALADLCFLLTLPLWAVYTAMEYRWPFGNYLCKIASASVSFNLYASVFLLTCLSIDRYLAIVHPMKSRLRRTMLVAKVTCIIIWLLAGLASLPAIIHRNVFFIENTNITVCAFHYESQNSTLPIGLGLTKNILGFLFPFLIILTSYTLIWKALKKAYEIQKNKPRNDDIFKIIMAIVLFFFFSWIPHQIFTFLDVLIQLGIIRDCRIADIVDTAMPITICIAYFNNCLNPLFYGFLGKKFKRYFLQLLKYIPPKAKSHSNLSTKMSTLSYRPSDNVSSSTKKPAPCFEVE
Method: The radioligand binding assay is a modification of a method previously described in detail (Gunther et al., Circ. Res. 47:278, 1980). A stable clone of human AT-1 receptors expressed in the mouse cell line L h AT-1-D6 is used. Cells are incubated in Tris buffer with 80 pM of 125I-angiotensin II with or without angiotensin II antagonists for 1 hour at 25° C. The incubation is terminated by rapid filtration and receptor bound ^125 I-angiotensin II trapped on the filter is quantitated with a gamma counter. The potency of angiotensin II antagonists is expressed as the IC50 which is the concentration of antagonist needed to displace 50% of the total specifically bound angiotensin II.

[1] = system: pressor response to angiotensin II; assay: Inhibition of pressor response to angiotensin II in conscious rats; format: in vivo; details: Rattus norvegicus, po, orally, change in mean arterial pressure in response to intravenous angiotensin II, read-out: IC50 (dose of compound needed to produce 50% inhibition of the control response to angiotensin II)
Method: Rats are prepared with indwelling femoral arterial and venous catheters and a stomach tube (Gellai et al., Kidney Int. 15:419, 1979). Two to three days following surgery the rats are placed in a restrainer and blood pressure is continuously monitored from the arterial catheter with a pressure transducer and recorded on a polygraph. The change in mean arterial pressure in response to intravenous injections of […] angiotensin II is compared at various time points prior to and following the administration of the compounds intravenously or orally at doses of 0.1 to 300 mg/k g. The dose of compound needed to produce 50% inhibition of the control response to angiotensin II (IC50) is used to estimate the potency of the compounds.

Br.CCCCc1ncc(/C=C(\Cc2cccs2)C(=O)Oc2ccc3c(c2)CCC3)n1Cc1ccc(C(=O)O)c2ccccc12 [Example 1, E-α-[[2-n-butyl-1-[(4-carboxy-1-naphthaleneyl)methyl]-1H-imidazol-5-yl]methylene]-2-thiophenepropanoic Acid Indan-5-yl Ester, Hydrobromide]
IC50 (human AT-1 receptors): 342 nM
ED50 [1]: 0.053 mg/kg

Source: US5395847A, “Imidazolyl-alkenoic acids” (SmithKline Beecham Corporation, priority 1994, dated 1995)
